One data set can be described thus: physchem. Conditions: buffer, pH 7.
A short description of data set [1]: Total plasma concentration in MK801 stimulated Sprague-Dawley rat hyperlocomotion model at 10 mg/kg, po after 2 hrs. The data set is classed as ADME, organism-based.
A short description of data set [2]: Oral bioavailability in Wistar Hannover rat at 10 mg/kg administered as single dose measured up to 24 hrs. As to conditions: in vivo. The data set is classed as ADME, organism-based.
A further data set can be described thus: in vivo. Conditions: Wistar Hannover, rat, 10 mg/kg.
The test system of data set [3] is Plasma. Put plainly: Unbound plasma concentration in PCP stimulated Sprague-Dawley rat hyperlocomotion model at 30 mg/kg, po after 2 hrs. The data set is classed as ADME, organism-based. Conditions: in vivo.
Another data set deals with Rattus norvegicus. Put plainly: Intrinsic clearance in iv dosed Wistar Hannover rat administered as single dose measured up to 24 hrs. As to conditions: in vivo. The data set is classed as ADME, organism-based.
The subject of data set [4] is Cerebrospinal fluid. Nature of the data set: Drug uptake in cerebro spinal fluid of PCP stimulated Sprague-Dawley rat hyperlocomotion model at 100 mg/kg, po. The data set is classed as ADME, organism-based. Conditions: in vivo, read-out: Drug uptake.
Data set [5] has as its system Plasma. Put plainly: Unbound plasma concentration in MK801 stimulated Sprague-Dawley rat hyperlocomotion model at 10 mg/kg, po after 2 hrs. Conditions: in vivo. The data set is classed as ADME, organism-based.
Data set [6] deals with Plasma. Put plainly: Unbound plasma concentration in PCP stimulated Sprague-Dawley rat hyperlocomotion model at 100 mg/kg, po after 2 hrs. Conditions: in vivo. The data set is classed as ADME, organism-based.
In data set [7] the test system is Plasma. Nature of the data set: Unbound plasma concentration in MK801 stimulated Sprague-Dawley rat hyperlocomotion model at 100 mg/kg, po after 2 hrs. As to conditions: in vivo. The data set is classed as ADME, organism-based.
Data set [8] relates to Cerebrospinal fluid. Put plainly: Drug uptake in cerebro spinal fluid of MK801 stimulated Sprague-Dawley rat hyperlocomotion model at 10 mg/kg, po. The data set is classed as ADME, organism-based. Conditions: in vivo, read-out: Drug uptake.
Data set [9] in a line: Total plasma concentration in PCP stimulated Sprague-Dawley rat hyperlocomotion model at 30 mg/kg, po after 2 hrs. The data set is classed as ADME, organism-based.
The test system of data set [10] is Cerebrospinal fluid. Put plainly: Drug uptake in cerebro spinal fluid of MK801 stimulated Sprague-Dawley rat hyperlocomotion model at 100 mg/kg, po. The data set is classed as ADME, organism-based. As to conditions: in vivo, read-out: Drug uptake.
The nature of data set [11]: Total plasma concentration in MK801 stimulated Sprague-Dawley rat hyperlocomotion model at 100 mg/kg, po after 2 hrs. The data set is classed as ADME, organism-based.
Data set [12] can be described thus: Total clearance in iv dosed Wistar Hannover rat administered as single dose measured up to 24 hrs. As to conditions: in vivo. The data set is classed as ADME, organism-based.
Data set [13] in a line: Total plasma concentration in PCP stimulated Sprague-Dawley rat hyperlocomotion model at 100 mg/kg, po after 2 hrs. The data set is classed as ADME, organism-based.
Data set [14] can be described thus: Half life in iv dosed Wistar Hannover rat administered as single dose measured up to 24 hrs. The data set is classed as ADME, organism-based. As to conditions: in vivo.
Data set [15] relates to Cerebrospinal fluid. Nature of the data set: Drug uptake in cerebro spinal fluid of PCP stimulated Sprague-Dawley rat hyperlocomotion model at 30 mg/kg, po. The data set is classed as ADME, organism-based. As to conditions: in vivo, read-out: Drug uptake.
Data set [16] concerns Plasma. Put plainly: Unbound plasma concentration in MK801 stimulated Sprague-Dawley rat hyperlocomotion model at 30 mg/kg, po after 2 hrs. The data set is classed as ADME, organism-based. Conditions: in vivo.
Data set [17] concerns Cerebrospinal fluid. Put plainly: Drug uptake in cerebro spinal fluid of PCP stimulated Sprague-Dawley rat hyperlocomotion model at 10 mg/kg, po. The data set is classed as ADME, organism-based. Conditions: in vivo, read-out: Drug uptake.
The nature of data set [18]: Total plasma concentration in PCP stimulated Sprague-Dawley rat hyperlocomotion model at 10 mg/kg, po after 2 hrs. The data set is classed as ADME, organism-based.
Data set [19] has as its system Plasma. Nature of the data set: Unbound plasma concentration in PCP stimulated Sprague-Dawley rat hyperlocomotion model at 10 mg/kg, po after 2 hrs. The data set is classed as ADME, organism-based. Conditions: in vivo.
The nature of data set [20]: Total plasma concentration in MK801 stimulated Sprague-Dawley rat hyperlocomotion model at 30 mg/kg, po after 2 hrs. The data set is classed as ADME, organism-based.
For data set [21], the system named is Cerebrospinal fluid. Nature of the data set: Drug uptake in cerebro spinal fluid of MK801 stimulated Sprague-Dawley rat hyperlocomotion model at 30 mg/kg, po. The data set is classed as ADME, organism-based. Conditions: in vivo, read-out: Drug uptake.
In another data set the test system is MDR1a (P-glycoprotein). Nature of the data set: Apparent permeability across pig LLC-PK cells expressing human/rat MDR1a. The data set is classed as ADME, cell-based, Sus scrofa. As to conditions: LLC-PK1.

≈ marks a conversion by molar mass, not a printed value.

`Cn1c(=O)n(CC(C)(C)C)c2ccc(-c3ccc(S(C)(=O)=O)cc3)nc21` returned a solubility in “physchem” of 7 µM (≈ 2.61 µg/mL).

As to `Cc1ccc(C(C)(C)O)cc1-c1ccc2c(n1)n(C)c(=O)n2CC(C)(C)C`, the concentration at 2 h amounted to 1400 nM in data set [1]; 8500 nM in data set [9]; 22000 nM in data set [11]; 25000 nM in data set [13]; 1800 nM in [18]; 6700 nM in data set [20]. The bioavailability in data set [2] is 47%. In “in vivo”, the highest level (Cmax at 24 h) was 1500 nM. Moreover, the “Cp(f)” value was found to be 255000 nM with Plasma [3]; 42000 nM in the data set with Plasma [5]; 750000 nM in the data set on Plasma [6]; 660000 nM in the data set with Plasma [7]; 201000 nM in the data set on Plasma [16]; 54000 nM in the data set with Plasma [19]. Further, in the data set with Rattus norvegicus, the CL came out at 2800 mL/min/kg. Besides, the concentration in the data set on Cerebrospinal fluid [4] came to 906 nM; in the data set on Cerebrospinal fluid [8] it was 21 nM; in the data set with Cerebrospinal fluid [10] it was 711 nM; in the data set on Cerebrospinal fluid [15] it was 399 nM; with Cerebrospinal fluid [17], 26 nM; in the data set with Cerebrospinal fluid [21] it was 211 nM. Also, the concentration in solution in “physchem” (solubility) was 147 µM (≈ 54 µg/mL). For the same compound, in data set [12], the clearance was found to be 42 mL/min/kg. The compound further showed a half-life in data set [14] of 58.8 min. Besides, in the data set with MDR1a (P-glycoprotein), the Papp is 31 ×10⁻⁶ cm/s.

For orientation: solubility means the concentration that dissolves in the medium under given conditions. Usually bioavailability stands for dose-corrected exposure relative to a reference, in per cent. A low value points to poor availability. The Cmax is the maximum level reached in the sampled fluid or tissue. By clearance is commonly meant a measure of how efficiently the substance is removed, as volume per time. Read a low clearance as inefficient removal. As usually defined, the half-life is how long it takes for the measured level to halve. By Papp is commonly meant the rate of passage across a membrane or cell layer, normalised by area and donor concentration.

These data come from ChEMBL document CHEMBL3763140, “Discovery of 5-aryl-1,3-dihydro-2H-imidazo[4,5-b]pyridin-2-ones as positive allosteric modulators of metabotropic glutamate subtype-2 (mGlu2) receptors with efficacy in a preclinical model of psychosis” (Bioorg Med Chem Lett, 2016).
